Measurements published in EP4818172A1, “ASCORBIC ACID DERIVATIVES AND COSMETIC CONTAINING SAME” (Seiwa Kasei Co., Ltd., priority 2023, dated 2025).

Key:
[1] = tested on: Normal human dermal fibroblasts (NHDF); assay: Hyaluronic acid production promoting effect (ELISA of supernatant); assay type: cell-based; conditions: sample at 10 mM or less in serum-free D-MEM, cultured 48 hours, % of control group (100%), N=3
Experimental: Normal human dermal fibroblasts (NHDF) were prepared in D-MEM containing 5% (v/v) fetal bovine serum to a cell density of 2.5 × 10^4 cells/well, and then pre-incubated on a 96-well plate for 24 hours. After removing the medium, samples prepared in serum-free D-MEM were added to each well and cultured for 48 hours. After the culture was completed, the amount of hyaluronic acid in the supernatant was quantified by ELISA. Measurements were performed in triplicate (N=3).
The amount of hyaluronic acid produced when the sample was measured at a concentration of 10 mM or less was compared with that of the control group, and the results (% values when the control group is set to 100%) are shown in Tables 18 to 20 based on the following criteria. • <100%: ± • 100-120%: + • 120%<: ++ [Table 18]

[2] = Stability test -2: odor and coloration of cream stored at 50°C; assay type: physicochemical; conditions: Test Example 2, cream stored at 50°C, total score of 10 panelists
Experimental: For each of the samples of Synthesis Examples 1 to 6, 1% aqueous solutions were adjusted to pH 3, 5, 7, 8, and 9 with a dilute potassium hydroxide aqueous solution, and then placed in 50 mL screw tubes and • 2: Color changes compared to immediately after preparation. • 1: Strongly colored compared to immediately after preparation. Based on the results of the above evaluation, the following classification was made: • ○: Total score of 10 panelists is 25 or more • △: Total score of 10 panelists is 16-24 • ×: The total score of 10 panelists is 15 or less [Table 10]
(§1) For each of the samples of Synthesis Examples 9 to 32, (a) and (b) shown in Table 12 were each heated and mixed. After cooling, (c) shown in Table 12 was added to prepare a cream with a pH of 7 or 9. The sample was stored at 50°C for 4 weeks, and the residual rate was determined in the same manner as in Test Example 1 and evaluated according to the criteria described below. The odor and coloration were also evaluated according to the same method and criteria as in Test Example 1. The results regarding the residual rate are shown in Tables 13 and 14, and the results regarding the odor and coloration are shown in Tables 15 and 16.

[3] = Stability test -2: residual rate in cream of pH 7 or 9 stored at 50°C; assay type: physicochemical; conditions: cream with 4.0 W/W% derivative
Experimental: as §1
• ⊚: 95% or more • ○: 85% or more, less than 95% • ×: Less than 85% [Table 12]

Row | Compound | Odor After 4 weeks [2] | Residual Rate After 2 weeks ([3]; pH7, stored at 50°C) | Residual Rate After 4 weeks ([3]; pH7, stored at 50°C) | Residual Rate After 2 weeks ([3]; pH9, stored at 50°C) | Residual Rate After 4 weeks ([3]; pH9, stored at 50°C) | Hyaluronic acid production-promoting effect [1] | Coloration After 2 weeks [2] | Odor After 2 weeks [2] | Coloration After 4 weeks [2]
1 | CCCCCCCCCCCCCCCC(=O)OC[C@H](O)[C@H]1OC(=O)C(OP(=O)(O)O)=C1O [Ascorbyl phosphate 3Na palmitate, reference compound] |  |  |  |  |  | ± (<100%) |  |  | 
2 | CC1(C)COC2=C(O1)C(C(O)CO)OC2=O (centres unmarked) [synthesis example 7, 2,3-O-(2,2-dimethyl-1,2-ethanediyl) ascorbic acid] |  |  |  |  |  | + (100-120%) |  |  | 
3 | CC1(C)OCC(C2OC(=O)C3=C2OCCCCO3)O1 (centres unmarked) [synthesis example 35, 5,6-O-isopropylidene-2,3-O-(1,4-butanediyl) ascorbic acid] |  |  |  |  |  | ++ (120%<) |  |  | 
4 | CC1(C)OCC(C2OC(=O)C3=C2OCCCO3)O1 (centres unmarked) [synthesis example 36, 5,6-O-isopropylidene-2,3-O-(1,3-propanediyl) ascorbic acid] |  |  |  |  |  | ++ (120%<) |  |  | 
5 | O=C1OC(C2COC(c3ccccc3)O2)C2=C1OCCCCO2 (centres unmarked) [synthesis example 37, 5,6-O-(phenylmethylene)-2,3-O-(1,4-butanediyl) ascorbic acid] |  |  |  |  |  | + (100-120%) |  |  | 
6 | O=C1OC(C2COC(c3ccccc3)O2)C2=C1OCCCO2 (centres unmarked) [synthesis example 38, 5,6-O-(phenylmethylene)-2,3-O-(1,3-propanediyl) ascorbic acid] |  |  |  |  |  | ++ (120%<) |  |  | 
7 | CC1(C)COC2=C(O1)C(=O)OC2C(O)CO (centres unmarked) [synthetic example 8, 2,3-O-(1,1-dimethyl-1,2-ethanediyl) ascorbic acid] |  |  |  |  |  | + (100-120%) |  |  | 
8 | O=C1OC(C(O)COCc2ccccc2)C2=C1OCCCCO2 (centres unmarked) [synthetic example 39, 6-O-benzyl-2,3-O-(1,4-butanediyl) ascorbic acid] |  |  |  |  |  | + (100-120%) |  |  | 

Now from value to compound, other results behind:

Row | Odor After 4 weeks [2] | Residual Rate After 2 weeks ([3]; pH7, stored at 50°C) | Residual Rate After 4 weeks ([3]; pH7, stored at 50°C) | Residual Rate After 2 weeks ([3]; pH9, stored at 50°C) | Residual Rate After 4 weeks ([3]; pH9, stored at 50°C) | Compound | Hyaluronic acid production-promoting effect [1] | Coloration After 2 weeks [2] | Odor After 2 weeks [2] | Coloration After 4 weeks [2]
9 | Δ | ○ (85% or more, less than 95%) | × (Less than 85%) | ○ (85% or more, less than 95%) | × (Less than 85%) | CCCCCCCCC(CCCCCC)C(=O)OC[C@H](OC(=O)C(CCCCCC)CCCCCCCC)[C@H]1OC(=O)C(OC(=O)C(CCCCCC)CCCCCCCC)=C1OC(=O)C(CCCCCC)CCCCCCCC (some centres unmarked) [Ascorbyl tetrahexyldecanoate, reference compound] |  | ○ (Total score of 10 panelists is 25 or more) | ○ (Total score of 10 panelists is 25 or more) | Δ
10 | Δ | ⊚ (95% or more) | ⊚ (95% or more) | ⊚ (95% or more) | ⊚ (95% or more) | CCCCCCCCCCCCCCCC(=O)OCC(OC(=O)CCC)C1OC(=O)C2=C1OCCCO2 (centres unmarked) [Synthesis Example 30, 5-O-butanoyl-6-O-palmitoyl-2,3-O-(1,3-propanediyl) ascorbic acid] |  | ○ (Total score of 10 panelists is 25 or more) | ○ (Total score of 10 panelists is 25 or more) | ○ (Total score of 10 panelists is 25 or more)
11 | Δ | ⊚ (95% or more) | ⊚ (95% or more) | ⊚ (95% or more) | ⊚ (95% or more) | CC(C)CCCCCCCCCCCCCCC(=O)OCC(OC(=O)CCCCCCCCCCCCCCC(C)C)C1OC(=O)C2=C1OCCO2 (centres unmarked) [Synthesis Example 32, 5,6-O-diisostearoyl-2,3-O-(1,2-ethanediyl) ascorbic acid] | + (100-120%) | ○ (Total score of 10 panelists is 25 or more) | ○ (Total score of 10 panelists is 25 or more) | ○ (Total score of 10 panelists is 25 or more)
12 | Δ | ⊚ (95% or more) | ⊚ (95% or more) | ⊚ (95% or more) | ○ (85% or more, less than 95%) | CCCCCCCC(=O)OCC(O)C1OC(=O)C2=C1OCCCCO2 (centres unmarked) [synthesis example 11, 6-O-octanoyl-2,3-O-(1,4-butanediyl) ascorbic acid] | ++ (120%<) | ○ (Total score of 10 panelists is 25 or more) | ○ (Total score of 10 panelists is 25 or more) | ○ (Total score of 10 panelists is 25 or more)
13 | Δ | ⊚ (95% or more) | ⊚ (95% or more) | ⊚ (95% or more) | ⊚ (95% or more) | CC(C)CCCCCCCCCCCCCCC(=O)OC[C@H](OC(=O)CCCCCCCCCCCCCCC(C)C)[C@H]1OC(=O)C2=C1OCCCCO2 [synthesis example 18, 5,6-O-diisostearoyl-2,3-O-(1,4-butanediyl) ascorbic acid] | ++ (120%<) | ○ (Total score of 10 panelists is 25 or more) | ○ (Total score of 10 panelists is 25 or more) | ○ (Total score of 10 panelists is 25 or more)
14 | Δ | ⊚ (95% or more) | ⊚ (95% or more) | ⊚ (95% or more) | ⊚ (95% or more) | CCCC(=O)OCC(O)C1OC(=O)C2=C1OCCCO2 (centres unmarked) [synthesis example 20, 6-O-butanoyl-2,3-O-(1,3-propanediyl) ascorbic acid] | ++ (120%<) | ○ (Total score of 10 panelists is 25 or more) | ○ (Total score of 10 panelists is 25 or more) | ○ (Total score of 10 panelists is 25 or more)
15 | Δ | ⊚ (95% or more) | ⊚ (95% or more) | ⊚ (95% or more) | ⊚ (95% or more) | CCCCCCCC(=O)OCC(O)C1OC(=O)C2=C1OCCCO2 (centres unmarked) [synthesis example 22, 6-O-octanoyl-2,3-O-(1,3-propanediyl) ascorbic acid] | ++ (120%<) | ○ (Total score of 10 panelists is 25 or more) | ○ (Total score of 10 panelists is 25 or more) | ○ (Total score of 10 panelists is 25 or more)
16 | Δ | ⊚ (95% or more) | ⊚ (95% or more) | ⊚ (95% or more) | ⊚ (95% or more) | CCCCCCCCCCCC(=O)OCC(O)C1OC(=O)C2=C1OCCCO2 (centres unmarked) [synthesis example 24, 6-O-lauroyl-2,3-O-(1,3-propanediyl) ascorbic acid] | ++ (120%<) | ○ (Total score of 10 panelists is 25 or more) | ○ (Total score of 10 panelists is 25 or more) | ○ (Total score of 10 panelists is 25 or more)
17 | Δ | ⊚ (95% or more) | ⊚ (95% or more) | ⊚ (95% or more) | ⊚ (95% or more) | CCCCCCCCCCCC(=O)OCC(OC(=O)CCCCCCCCCCC)C1OC(=O)C2=C1OCCCO2 (centres unmarked) [synthesis example 25, 5,6-O-dilauroyl-2,3-O-(1,3-propanediyl) ascorbic acid] | ++ (120%<) | ○ (Total score of 10 panelists is 25 or more) | ○ (Total score of 10 panelists is 25 or more) | Δ
18 | Δ | ⊚ (95% or more) | ⊚ (95% or more) | ⊚ (95% or more) | ⊚ (95% or more) | CCCCCCCC(=O)OCC(OC(=O)CCC)C1OC(=O)C2=C1OCCCCO2 (centres unmarked) [synthetic example 19, 5-O-butanoyl-6-O-octanoyl-2,3-O-(1,4-butanediyl) ascorbic acid] |  | ○ (Total score of 10 panelists is 25 or more) | ○ (Total score of 10 panelists is 25 or more) | ○ (Total score of 10 panelists is 25 or more)
